Columns and labels:
XRCC6 = assay: qRT-PCR of shRNA-mediated inhibition of NHEJ component gene expression (Example 3); assay type: cell-based, human; conditions: AC16 cells, 5 μg shRNA plasmid, 3 days after transfection, FIG. 6
Method: (§1) Purification of total RNA was performed, and reverse transcription of total 1 μg RNA was performed with Superscript IV reverse transcriptase (INVITROGEN) using random hexamers. For real-time PCR, 1/20 of the RT product was amplified with the KAPA SYBR FAST qPCR kit (KAPA BIOSYSTEM, Wilmington, MA, USA) using the real-time cycler Quantstudio (THERMO FISHER SCIENTIFIC). The relative amount of mRNA transcripts was measured by the […]. GAPDH and 18s rRNA were used as endogenous controls.
(§2) 5 μg of plasmid vector encoding shRNA was prepared using All-in-one vector (Biofact), transfected into AC16 cells, and harvested 3 days after transfection. Then, mRNA expression of each NHEJ component gene was measured by qRT-PCR. […] The sequences of sense strands of the shRNAs used are described in Table 9.

KU70 = assay: Western blot of shRNA-mediated inhibition of NHEJ component gene expression (Example 4); assay type: cell-based, human; conditions: AC16 cells, conditions as Example 3, FIG. 7
Method: (§3) Cell extracts were prepared by scraping cells with 60 to 80 μl of RIPA Lysis and Extraction Buffer (THERMOFISHER, 89900) containing protease inhibitor cocktail (ROCHE, 11836153001) at 4° C. and kept on ice for 10 minutes. The concentration of the cleared lysate was measured by Bradford assay (BIO-RAD), in which 20 to 65 μg of protein lysate, depending on the target protein, was loaded onto Mini-PROTEAN® TGX™ Precast Protein Gels (BIO-RAD), electrophoresed, and transferred to PVDF membranes using the Trans-Blot Turbo Transfer System (BIO-RAD). The membrane was incubated at room temperature for 1 hour in a blocking solution containing 5% non-fat dry milk in TBS-T and then incubated at 4° C. overnight with primary antibodies in TBS-T. After incubation with primary antibodies, the membrane was washed four times with TBS-T and then incubated at room temperature for 1 hour in a blocking solution containing anti-rabbit or anti-mouse immunoglobulin conjugated with HRP. The membrane was additionally washed four times with TBS-T and specific protein complexes were visualized with ECL prime (CYTIVA). Antibodies used were against KU70 (CST, 4588S), DNA ligase IV (CST, 146495), XLF (CST, 2854S), Artemis (CST, 13381), GAPDH (CST, 2118L), and XRCC4 (THERMO, MA5-24383).
(§4) shRNA-mediated inhibition of gene expression was analyzed by Western blot analysis. The experimental conditions were the same as in Example 3. […] As a result, the Western blot results were consistent with the qRT-PCR results.

XRCC4 [1] = assay: qRT-PCR of shRNA-mediated inhibition of NHEJ component gene expression (Example 3); assay type: cell-based, human; conditions: AC16 cells, 5 μg shRNA plasmid, 3 days after transfection, FIG. 6
Method: as §1, §2

XRCC4 [2] = assay: Western blot of shRNA-mediated inhibition of NHEJ component gene expression (Example 4); assay type: cell-based, human; conditions: AC16 cells, conditions as Example 3, FIG. 7
Method: as §3, §4

DCLRE1C [3] = assay: qRT-PCR of shRNA-mediated inhibition of NHEJ component gene expression (Example 3); assay type: cell-based, human; conditions: AC16 cells, 5 μg shRNA plasmid, 3 days after transfection, FIG. 6
Method: as §1, §2

Artemis = assay: Western blot of shRNA-mediated inhibition of NHEJ component gene expression (Example 4); assay type: cell-based, human; conditions: AC16 cells, conditions as Example 3, FIG. 7
Method: as §3, §4

Dystrophin Exon 51, E51 [4] = assay: E51 deletion by UnCas12f1 with shRNA, agarose gel of PCR-amplified E51 region and band intensity analysis (Examples 5, 6); assay type: cell-based, human; conditions: HEK 293T cells, Image J analysis of FIG. 8, comparison between shRNAs, FIG. 9
Method: A pair of guide RNAs for the targets F142 and R52 as shown in Table 14 was used to induce E51 deletion. In order to accurately find the optimal shRNA for a large-scale deletion strategy, comparison of the deletion efficiency altered by the selected shRNAs was conducted in HEK 293T cells. The E51 deletion efficiency was measured on an agarose gel in which the PCR-amplified E51 region was decomposed. From the results, it can be seen that treatment with shRNA increases the E51 deletion efficiency caused by UnCas12f1 .
To compare the large-scale deletion efficiency between various treatments with shRNA, intensity analysis was conducted on the deletion band (Del) and the non-deletion band (WT) in FIG. 8, and the relative values were calculated using Image J software.

DCLRE1C [5] = assay: qRT-PCR of mRNA expression in AC16 cells transfected with candidate shRNAs (Example 12.1); assay type: cell-based, human; conditions: 5 ug, 3 days, among the five shDCLRE1C shRNAs, FIG. 17
Method: as §1
Candidate shRNAs for six genes known to be involved in the NHEJ repair pathway were transfected into previously prepared AC16 cells at a dose of 5 ug, and incubation was performed for 3 days. Then, the cells were harvested and qRT-PCR was used to measure the mRNA expression levels of the genes. The results are shown in FIG. 15 (ATM1 and XRCC4), FIG. 16 (XLF-1 and XRCC6), and FIG. 17 (LIG4 and DCLRE1C). From the results, the optimal shRNAs were selected. Scrambled indicates the control shRNA.

Dclre1c [6] = assay: qRT-PCR of murine Dclre1c mRNA after shRNA treatment in Hepa-1c1c7 cells (Example 11); assay type: cell-based, mouse; conditions: shRNA under U6 promoter, FIG. 14
Method: as §1
shRNAs for the Dclre1c gene encoding mouse Artemis protein were selected in Hepa-1c1c7 cells. The shRNAs, which are expressed under the U6 promoter, were generated, and qRT-PCR was performed to measure of the Dclre1c mRNA levels. […] The thus selected shRNAs can be used for in vivo studies using mouse models (for example, DMD mouse model with endogenous murine Dclre1c gene).

ATM1 [7] = assay: qRT-PCR of shRNA-mediated inhibition of NHEJ component gene expression (Example 3); assay type: cell-based, human; conditions: AC16 cells, 5 μg shRNA plasmid, 3 days after transfection, FIG. 6
Method: as §1, §2

ATM1 [8] = assay: Western blot of shRNA-mediated inhibition of NHEJ component gene expression (Example 4); assay type: cell-based, human; conditions: AC16 cells, conditions as Example 3, FIG. 7
LIG4 = assay: qRT-PCR of shRNA-mediated inhibition of NHEJ component gene expression (Example 3); assay type: cell-based, human; conditions: AC16 cells, 5 μg shRNA plasmid, 3 days after transfection, FIG. 6
Method: as §1, §2

DNA ligase IV = assay: Western blot of shRNA-mediated inhibition of NHEJ component gene expression (Example 4); assay type: cell-based, human; conditions: AC16 cells, conditions as Example 3, FIG. 7
Method: as §3, §4

Dystrophin Exon 51, E51 [9] = assay: Quantification of large-scale deletion of E51 by qPCR in HEK293T cells (Example 7); assay type: cell-based, human; conditions: 3 days, shRNA + UnCas12f1 + gRNA pair F142/R52, qPCR, compared among shDCLRE1C-2, -3, -5, FIG. 10A
Method: Quantitative real-time PCR was used to quantify genomic DNA. Primer sequences were designed for each of the E51 internal regions where large-scale deletion occurs. For qPCR, 20 ng of gDNA was amplified with the KAPA SYBR FAST qPCR kit (KAPA BIOSYSTEM, Wilmington, MA, USA) using the real-time cycler Quantstudio (THERMO FISHER SCIENTIFIC).
(§5) The efficiency of large-scale deletion was analyzed by qPCR 3 days after treatment of HEK293T cells with the selected shRNA (shDCLRE1C-2, -3, or -5)+UnCas12f1 and a pair of gRNA (F142/R52), and the results are shown in FIG. 10A.
For shDCLRE1C and shXRCC6 among the shRNAs selected in Example 4, experiments were conducted in the same manner as in Example 7.1 using the two shRNAs alone, in combination, or one shRNA thereof in two copies, to analyze the efficiency of large-scale deletion of E51.

DCLRE1C [10] = assay: DCLRE1C mRNA level by qPCR in HEK293T cells (Example 7.1); assay type: cell-based, human; conditions: 3 days, compared among shDCLRE1C-2, -3, -5, FIG. 10B
Method: as §1, §5

Dystrophin Exon 51, E51 [11] = assay: Whole genome sequencing (WGS) analysis of E51 deletion efficiency (Example 8); assay type: cell-based, human; conditions: HEK293T cells, UnCas12f1 + gRNA pair F142/R52, 5 days after transfection, shRNA in two copies (shDC-3×2), FIG. 11
Method: HEK293T cells were transfected with UnCas12f1, a pair of gRNA (F142/R52), and shRNA, and then harvested 5 days after transfection. Genomic DNA was purified using a gDNA prep kit (Maxwell® RSC Cultured Cells DNA, PROMEGA, AS1620). 400 to 500 ng of genomic DNA was fragmented, and libraries were prepared using the MGIEasy FS DNA Library Prep. Kit (MGI Tech) according to the manufacturer's instructions. The libraries were then subjected to WGS using DNBSEQ-T7 (MGI Tech). Sequence reads were mapped to the human genome reference standard, GRCh38. Large-scale deletion efficiency was analyzed by counting reads mapped to the deleted region between a pair of gRNAs, and counts per million (CPM) was calculated. The percentage of deletion was calculated based on the difference in CPM between the sample and the control.
HEK293T cells were transfected with UnCas12f1, a pair of gRNA (F142/R52), and shRNA, and then harvested 5 days after transfection. gDNA was prepared therefrom for WGS that is performed to verify large-scale deletion efficiency. To compare the degree of deletion between the two gRNAs which is induced at both sides of E51, reads were mapped to the reference standard sequence and counting was performed within the deleted region. The data were presented as CPM (Count Per Million) along with each read count. […]

XLF [12] = assay: qRT-PCR of shRNA-mediated inhibition of NHEJ component gene expression (Example 3); assay type: cell-based, human; conditions: AC16 cells, 5 μg shRNA plasmid, 3 days after transfection, FIG. 6
Method: as §1, §2

XLF [13] = assay: Western blot of shRNA-mediated inhibition of NHEJ component gene expression (Example 4); assay type: cell-based, human; conditions: AC16 cells, conditions as Example 3, FIG. 7
Method: as §3, §4

GCAGCAUUGUGCAGAUACA (listed as RNA, chemistry not given here) [XRCC6-1]
mRNA expression of NHEJ component gene XRCC6 (XRCC6): most effective
inhibition of XRCC6 (KU70) expression by Western blot (KU70): effectively reduced expression of the target genes

GAAUCCACCUUUGUUUCUGA (sense GAAUCCACCUUGUUUCUGA; part of shRNA hairpin, further chemistry not given here) [XRCC4-3]
mRNA expression of NHEJ component gene XRCC4 (XRCC4 [1]): most effective
inhibition of XRCC4 expression by Western blot (XRCC4 [2]): effectively reduced expression of the target genes

GCAGAGCUCUCCUUUCACA (sense GCAGAGCUCUCGUUUCACA; part of shRNA hairpin, further chemistry not given here) [DCLRE1C-3]
mRNA expression of NHEJ component gene DCLRE1C (DCLRE1C [3]): most effective
inhibition of DCLRE1C (Artemis) expression by Western blot (Artemis): effectively reduced expression of the target genes
large-scale deletion efficiency (relative intensity of deletion band vs non-deletion band) (Dystrophin Exon 51, E51 [4]): most effective

GGACAAAGCUGACUACAGAUUCAAGAGAUCUGUAGUCAGCUUUGUCC (short hairpin RNA, further chemistry not given here) [shDCLRE1C2]
mRNA expression inhibition efficiency (DCLRE1C) (DCLRE1C [5]): highest mRNA expression inhibition efficiency

GCAGAAUUCUUCCCAGUCAUUCAAGAGAUGACUGGGAAGAAUUCUGC (short hairpin RNA, further chemistry not given here) [shDCLRE1C5]
mRNA expression inhibition efficiency (DCLRE1C) (DCLRE1C [5]): highest mRNA expression inhibition efficiency

GAGCUGGGAGUUCAGGUUCA (listed as RNA, chemistry not given here) [shDclre1c-12]
Dclre1c mRNA level (Dclre1c [6]): greatest decrease

GGAGCUGAUUGUAGCAACA (listed as RNA, chemistry not given here) [ATM-3]
mRNA expression of NHEJ component gene ATM (ATM1 [7]): most effective
inhibition of ATM expression by Western blot (ATM1 [8]): effectively reduced expression of the target genes

GCAUGAUCCUUCUGUAGGA (listed as RNA, chemistry not given here) [LIG4-5]
mRNA expression of NHEJ component gene LIG4 (LIG4): most effective
inhibition of LIG4 (DNA ligase IV) expression by Western blot (DNA ligase IV): effectively reduced expression of the target genes

GCAGAGCUCUCGUUUCACAUUCAAGAGAUGUGAAACGAGAGCUCUGC (short hairpin RNA, further chemistry not given here) [shDCLRE1C3]
mRNA expression inhibition efficiency (DCLRE1C) (DCLRE1C [5]): highest mRNA expression inhibition efficiency

GCACCGCAAGCCUUCUAUA (listed as RNA, chemistry not given here) [shDclre1c-3]
deletion level (efficiency of large-scale deletion of E51) (Dystrophin Exon 51, E51 [9]): highest deletion level
DCLRE1C mRNA level (DCLRE1C [10]): most effectively downregulates DCLRE1C expression
mapped reads in the deleted region (CPM) (Dystrophin Exon 51, E51 [11]): decreased

GCAUGAGUCUGGCAUUACA (listed as RNA, chemistry not given here) [XLF-1]
mRNA expression of NHEJ component gene XLF (XLF [12]): most effective
inhibition of XLF expression by Western blot (XLF [13]): effectively reduced expression of the target genes
